Source: US20110152267A1, “Compositions and Methods for Treating Hyperproliferative Disorders” (Texas Tech University System, priority 2009, published 2011)

Legend:
Type in all cases: cell-based, human
[1] = test system: NCI-H-1792 lung adenocarcinoma cell line; test: DIMSCAN cytotoxicity, fenretinide + L-threo-sphinganines 3:1 (Example B12); conditions: 96 h
Method: (§1) Cytotoxicity Assay—Once again, cytotoxicity is determined using the DIMSCAN assay system (R. Proffitt et al., Cytometry 24, 204-213 (1996); T. Frgala et al., Mol Cancer Ther. 6:886-97, 2007). The system employs digital imaging microscopy to quantify viable cells, which selectively accumulate fluorescein diacetate to become brightly fluorescent. The system is capable of measuring cytotoxicity over a 4-5 log dynamic range by quenching the residual fluorescence of dead and dying cells with eosin Y and quantifying the total fluorescence of viable cells using digital thresholding. Measured fluorescence is directly proportionate to the number of viable cells. A comparison of the total fluorescence of a drug-treated cell population to the fluorescence of a similar number of untreated cells yields a survival fraction. In brief, 2000 to 10,000 cells/well (depending on size and growth rates) are replicate plated into 60 wells of a 96-well tissue culture plate in 0.1 mL of whole medium and allowed to attach overnight. Drug(s) are then added in 0.05 mL of whole medium to the final concentrations indicated. Drugs (fenretinide, and various chain length L-threo-sphinganines) were tested both as single agents and in a 3:1 ratio of fenretinide:sphinganine. C18-L-threo-sphinganine, or “safingol,” was also tested and results shown for reference. There are 12 wells treated per drug concentration. Twelve wells receive drug vehicle-only to the appropriate final concentration and serve as controls for the plate. Cells are incubated for 96 hours at 37° C. in ambient air with 5% CO2. Fluorescein diacetate is then added to each well in 0.05 mL media to a final concentration of 8 microgram/mL. Cells are incubated for a further 15 minutes at 37° C. and 0.03 mL of 0.5% eosin Y is added to each well. Total fluorescence of viable cells is then measured by digital imaging microscopy. Results were graphed as the ratio of the fluoresecence of drug-treated wells to non-drug treated control wells (i.e., Survival Fraction). All tests were performed at least twice. Representative results are shown.
(§2) The Combination Index (CI) is a term to describe mathematical modeling of the pharmacologic effects on cytotoxicity (cell death) of two drugs in combination based. Cytotoxic “synergy” is defined as a cell death affect which is greater than would be expected from a simple product of the single agent cytotoxicities alone (i.e. an “additive” effect). By Chou-Talalay analysis, a CI<0.9 on a Fraction Affected (“Fa”, i.e. fraction of cells killed) indicates synergy, with smaller numbers indicating greater synergy; a CI of 0.9-1.1 signifies an additive or near-additive effect; and a CI>1.1 means the drug combination is antagonistic.
Fenretinide and L-threo-sphinganines tested in human lung adenocarcinoma (lung cancer) cell line, NCI-H-1792.

[2] = test system: LNCaP prostate adenocarcinoma cell line; test: DIMSCAN cytotoxicity, fenretinide + L-threo-sphinganines 3:1 (Example B16); conditions: LNCaP.FGC
Method: as §1, §2
Fenretinide and L-threo-sphinganines tested in human prostate adenocarcinoma (prostate cancer) cell line, LNCaP.

[3] = test system: COG-LL-317 acute lymphoblastic leukemia cell line; test: DIMSCAN cytotoxicity, fenretinide + L-threo-sphinganines 3:1 (Example B20)
Method: as §1, §2
(§3) Fenretinide and L-threo-sphinganines tested in human acute lymphoblastic leukemia (pediatric ALL, a blood cancer) cell lines, COG-LL-317 and MOLT-4.

[4] = test system: MOLT-4 acute lymphoblastic leukemia cell line; test: as above
Method: as §1, §2, §3

[5] = test system: drug-resistant CHLA-90 neuroblastoma cancer cell line; test: DIMSCAN cytotoxicity dose-response with fenretinide (Examples A, FIGS. 1, 7, 12); conditions: at one or more doses, +96 hrs
Method: Cytotoxicity Assay: Cytotoxicity in cell lines was determined using a fluorescence-based assay employing digital imaging microscopy (DIMSCAN)(after Fragala, et al, Mol Cancer Ther, 6:886-897, 2007). DIMSCAN quantitates viable cells which selectively accumulate fluorescein diacetate and is capable of measuring cytotoxicity over a 4-5 log dynamic range by quantifying total fluorescence per well (which is proportional to viable, clonogenic cells) after eliminating background fluorescence using digital thresholding and eosin Y quenching. Briefly, cell lines were seeded into 96-well plates in 100 µL of complete culture medium (10-20% serum) per well. Cells were incubated overnight in 2%, 5% or 20% oxygen (room air) prior to addition of drugs in […] volumes of complete medium to various final drug concentrations in replicates of 12 wells per concentration. In assays employing D-threo-PPMP, PPMP was employed at a fixed, minimally-toxic, final concentration of 10 μM in each well. Control wells received ethanol (final concentration=0.12%-0.20%) in complete medium equivalent to the maximum final ethanol concentration of drug-treated wells. Plates were incubated at various oxygen concentrations to simulate physiological hypoxia (i.e., 2% oxygen=typical solid tumor oxygen levels; 5%=bone marrow oxygen levels for leukemias; 20% room air=supraphysiological oxygen for comparison with typical laboratory culture conditions). Plates were assayed at 3-4 days after initiating drug exposure depending on the growth properties of each cell line, to allow for maximum cell death and outgrowth of surviving cells. To measure cytotoxicity, FDA (stock solution of 1 mg/ml in DMSO) was added, in 50 µL of complete medium per well, to a final concentration of 10 µg/ml. The plates were incubated for an additional 15-30 minutes at 37 C and then 30 µL of eosin Y (0.5% in normal saline) was added per well. Total fluorescence of each well was then measured using digital imaging microscopy. […]

[6] = test system: GBM2 glioblastoma brain cancer cell line; test: DIMSCAN cytotoxicity dose-response with fenretinide, with or without D-threo-PPMP (Examples A, FIGS. 3, 9, 14, 18-20); conditions: +96 hrs; for C.I. of D-threo-PPMP with fenretinide+L-threo-sphinganine (three drug combination): 2% oxygen, D-threo-PPMP fixed 10 uM, at most doses; for C.I. (Combination Index) with fenretinide: at one or more doses
Method: (§4) Cytotoxicity Assay: Cytotoxicity in cell lines was determined using a fluorescence-based assay employing digital imaging microscopy (DIMSCAN)(after Fragala, et al, Mol Cancer Ther, 6:886-897, 2007). DIMSCAN quantitates viable cells which selectively accumulate fluorescein diacetate and is capable of measuring cytotoxicity over a 4-5 log dynamic range by quantifying total fluorescence per well (which is proportional to viable, clonogenic cells) after eliminating background fluorescence using digital thresholding and eosin Y quenching. Briefly, cell lines were seeded into 96-well plates in 100 µL of complete culture medium (10-20% serum) per well. Cells were incubated overnight in 2%, 5% or 20% oxygen (room air) prior to addition of drugs in […] volumes of complete medium to various final drug concentrations in replicates of 12 wells per concentration. In assays employing D-threo-PPMP, PPMP was employed at a fixed, minimally-toxic, final concentration of 10 μM in each well. Control wells received ethanol (final concentration=0.12%-0.20%) in complete medium equivalent to the maximum final ethanol concentration of drug-treated wells. Plates were incubated at various oxygen concentrations to simulate physiological hypoxia (i.e., 2% oxygen=typical solid tumor oxygen levels; 5%=bone marrow oxygen levels for leukemias; 20% room air=supraphysiological oxygen for comparison with typical laboratory culture conditions). Plates were assayed at 3-4 days after initiating drug exposure depending on the growth properties of each cell line, to allow for maximum cell death and outgrowth of surviving cells. To measure cytotoxicity, FDA (stock solution of 1 mg/ml in DMSO) was added, in 50 µL of complete medium per well, to a final concentration of 10 µg/ml. The plates were incubated for an additional 15-30 minutes at 37 C and then 30 µL of eosin Y (0.5% in normal saline) was added per well. Total fluorescence of each well was then measured using digital imaging microscopy.
(§5) FIGS. 1 to 26 illustrate the effect (Examples A1 through A26) of the claimed invention and were carried out using the procedures disclosed herein.

[7] = test system: MOLT-4 ALL leukemia cell line; test: DIMSCAN cytotoxicity dose-response with fenretinide, with or without D-threo-PPMP (Examples A, FIGS. 6, 24-26); conditions: +96 hrs; for C.I. of D-threo-PPMP with fenretinide+L-threo-sphinganine (three drug combination): 2% oxygen, D-threo-PPMP fixed 10 uM, at most doses
Method: as §4, §5

[8] = 4-HPR 1.5 μM + L-threo-sphinganine 0.5 μM
[9] = 4-HPR 3 μM + L-threo-sphinganine 1 μM
[10] = 4-HPR 6 μM + L-threo-sphinganine 2 μM
[11] = 4-HPR 9 μM + L-threo-sphinganine 3 μM
[12] = 4-HPR 12 μM + L-threo-sphinganine 4 μM

SMILES | CI (Combination Index) [1, 8] | Fa (fraction affected) [1, 8] | CI (Combination Index) [1, 9] | Fa (fraction affected) [1, 9] | CI (Combination Index) [1, 10] | Fa (fraction affected) [1, 10] | CI (Combination Index) [1, 11] | Fa (fraction affected) [1, 11] | CI [2, 8] | Fa [2, 8] | CI [2, 9] | Fa [2, 9] | CI [2, 10] | Fa [2, 10] | CI [2, 11] | Fa [2, 11] | CI [3, 9] | Fa [3, 9] | CI [3, 10] | Fa [3, 10] | other results
CCCCCCCCCCCCCCCCC[C@H](O)[C@@H](N)CO [C20, (2S,3S)-2-amino-1,3-icosanediol] | 0.9 | 0.287 | 0.7 | 0.852 | 0.7 | 0.972 | 0.5 | 0.998 | 0.7 | 0.812 | 0.4 | 0.987 | 0.7 | 0.993 | 0.8 | 0.999 | 0.2 | 0.9999 | 0.3 | 1 | Fa [3, 11]: 1; Fa [3, 12]: 1; CI [4, 9]: 0.9; Fa [4, 9]: 0.878; CI [4, 10]: 0.8; Fa [4, 10]: 0.996; CI [4, 11]: 0.8; Fa [4, 11]: 0.999; Fa [4, 12]: 1; C.I. (Combination Index) with fenretinide [5]: < 1; C.I. of D-threo-PPMP with fenretinide+L-threo-sphinganine (three drug combination) [6]: < 1; C.I. (Combination Index) with fenretinide [6]: < 1; C.I. of D-threo-PPMP with fenretinide+L-threo-sphinganine (three drug combination) [7]: < 1
CCCCCCCCCCCCCC[C@H](O)[C@@H](N)CO [C17, (2S,3S)-2-amino-1,3-heptadecanediol] | 1.1 | 0.112 | 1.0 | 0.661 | 0.9 | 0.974 | 1.0 | 0.993 | 0.3 | 0.887 | 0.3 | 0.967 | 0.2 | 0.991 | 0.1 | 0.999 | 0.8 | 0.993 | 1.3 | 0.9993 | CI [3, 11]: 0.5; Fa [3, 11]: 0.9999; Fa [3, 12]: 1; CI [4, 9]: 1.0; Fa [4, 9]: 0.807; CI [4, 10]: 0.7; Fa [4, 10]: 0.998; CI [4, 11]: 0.8; Fa [4, 11]: 0.999; Fa [4, 12]: 1; C.I. (Combination Index) with fenretinide [5]: < 1; C.I. of D-threo-PPMP with fenretinide+L-threo-sphinganine (three drug combination) [6]: < 1; C.I. (Combination Index) with fenretinide [6]: < 1; C.I. of D-threo-PPMP with fenretinide+L-threo-sphinganine (three drug combination) [7]: < 1; C.I. (Combination Index) with fenretinide ([7]; at one or more doses): < 1
CCCCCCCCCCCCCCC[C@H](O)[C@@H](N)CO [C18, (2S,3S)-2-amino-1,3-octadecanediol, reference compound] | 1.2 | 0.243 | 0.8 | 0.756 | 0.6 | 0.983 | 0.4 | 0.999 | 0.9 | 0.752 | 0.3 | 0.971 | 0.1 | 0.998 | 0.1 | 0.999 | 0.8 | 0.998 | 0.6 | 0.9994 | CI [3, 11]: 0.8; Fa [3, 11]: 0.9996; Fa [3, 12]: 1; CI [4, 9]: 0.9; Fa [4, 9]: 0.829; CI [4, 10]: 0.7; Fa [4, 10]: 0.998; CI [4, 11]: 0.8; Fa [4, 11]: 0.999; Fa [4, 12]: 1
CCCCCCCCC[C@H](O)[C@@H](N)CO [C12] | 1.0 | 0.217 | 1.3 | 0.642 | 1.4 | 0.951 | 1.8 | 0.975 | 0.5 | 0.870 | 0.3 | 0.982 | 0.4 | 0.996 | 0.4 | 0.999 |  |  |  |  | 
